{
  "source": "patent US6608082B1",
  "about": "“Treatment of erectile dysfunction using isoquinoline compound melanocortin receptor ligands” (Lion Bioscience AG, priority 1998, dated 2003)",
  "key": {"[1]": {"target": "T1, MCR-1 (Homo sapiens, UniProt Q01726)", "T1 construct": "expressed in transfected cells; host or cells: HEK 293", "T1 sequence (Q01726 whole entry)": "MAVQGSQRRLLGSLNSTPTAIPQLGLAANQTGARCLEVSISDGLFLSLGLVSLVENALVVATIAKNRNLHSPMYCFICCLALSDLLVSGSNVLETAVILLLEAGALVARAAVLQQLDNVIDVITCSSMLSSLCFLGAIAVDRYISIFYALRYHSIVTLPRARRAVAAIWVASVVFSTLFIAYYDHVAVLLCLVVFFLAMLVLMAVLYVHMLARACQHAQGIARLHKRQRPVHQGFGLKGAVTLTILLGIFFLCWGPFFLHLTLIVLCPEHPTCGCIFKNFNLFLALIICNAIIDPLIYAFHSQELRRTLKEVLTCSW", "test": "Melanocortin receptor binding assay, competition with 125I-HP 467, HEK 293 cells expressing hMCR-1", "conditions": "inhibition of binding of 125I-HP 467, HEK 293 cells expressing MCR-1, TRG 2414 library; for IC50: read-out: MC-1 IC50", "in_short": "(§1)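 Test compounds compete on intact HEK 293 cells carrying hMCR-1 (2×10^4 per tube) or hMCR-4 (4×10^3 per tube), suspended in PBS, 10% calf serum, 1 mM CaCl2.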"}, "[2]": {"target": "T2, MCR-4 (Homo sapiens, UniProt P32245)", "T2 construct": "expressed in transfected cells; host or cells: HEK 293", "T2 sequence (P32245 whole entry)": "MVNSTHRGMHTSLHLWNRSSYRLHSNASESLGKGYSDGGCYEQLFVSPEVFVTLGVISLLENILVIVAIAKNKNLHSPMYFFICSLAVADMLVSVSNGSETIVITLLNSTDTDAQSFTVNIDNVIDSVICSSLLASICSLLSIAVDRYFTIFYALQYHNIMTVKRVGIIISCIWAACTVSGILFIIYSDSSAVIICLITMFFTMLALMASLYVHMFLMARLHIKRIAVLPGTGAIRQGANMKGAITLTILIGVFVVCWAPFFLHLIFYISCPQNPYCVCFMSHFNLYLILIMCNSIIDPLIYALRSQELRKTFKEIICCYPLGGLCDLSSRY", "test": "Melanocortin receptor binding assay, competition with 125I-HP 467, HEK 293 cells expressing hMCR-4", "conditions": "inhibition of binding of 125I-HP 467, HEK 293 cells expressing MCR-4, TRG 2414 library; for IC50: read-out: MC-4 IC50", "in_short": "as §1"}},
  "data": [
    {"compound": "CC(C)Cc1ccc(C(C)CNC(CN)CCCCN2Cc3ccccc3C(CNCCc3cccc(Cl)c3)C2c2cccc(Oc3ccccc3)c2)cc1", "note": "(stereo not shown) [TRG 2414-96]", "values": [
      {"measurement": "MC-1 IC50", "setting": "[1]", "value": "no fit"},
      {"measurement": "IC50", "setting": "[2]", "value": 50.6, "unit": "µM"}
    ]},
    {"compound": "COc1cccc(CNCC2c3ccccc3CN(CCCCC(CN)NCc3ccccc3)C2c2cccc(Oc3ccccc3)c2)c1", "note": "(stereo not shown) [TRG 2414-99]", "values": [
      {"measurement": "IC50", "setting": "[1]", "value": 5.86, "unit": "µM"},
      {"measurement": "IC50", "setting": "[2]", "value": 6.93, "unit": "µM"}
    ]},
    {"compound": "COc1cccc(CNCC2c3ccccc3CN(CCCCC(CN)NCC(C)c3ccc(CC(C)C)cc3)C2c2cccc(Oc3ccccc3)c2)c1", "note": "(stereo not shown) [TRG 2414-100]", "values": [
      {"measurement": "MC-1 IC50", "setting": "[1]", "value": "no fit"},
      {"measurement": "MC-4 IC50", "setting": "[2]", "value": "no fit"}
    ]},
    {"compound": "COc1ccc(CNCC2c3ccccc3CN(CCCCC(N)CN)C2c2cccc(Oc3ccccc3)c2)cc1", "note": "(stereo not shown) [TRG 2414-101]", "values": [
      {"measurement": "IC50", "setting": "[1]", "value": 2.5, "unit": "µM"},
      {"measurement": "IC50", "setting": "[2]", "value": 1.26, "unit": "µM"}
    ]},
    {"compound": "COc1ccc(CNCC2c3ccccc3CN(CCCCC(CN)NCCc3ccccc3)C2c2cccc(Oc3ccccc3)c2)cc1", "note": "(stereo not shown) [TRG 2414-102]", "values": [
      {"measurement": "IC50", "setting": "[1]", "value": 12.2, "unit": "µM"},
      {"measurement": "IC50", "setting": "[2]", "value": 6.91, "unit": "µM"}
    ]},
    {"compound": "COc1ccc(CNCC2c3ccccc3CN(CCCCC(CN)NCC(C)c3ccc(CC(C)C)cc3)C2c2cccc(Oc3ccccc3)c2)cc1", "note": "(stereo not shown) [TRG 2414-104]", "values": [
      {"measurement": "MC-1 IC50", "setting": "[1]", "value": "no fit"},
      {"measurement": "IC50", "setting": "[2]", "value": 46.2, "unit": "µM"}
    ]},
    {"compound": "COc1ccc(CCNCC2c3ccccc3CN(CCCCC(N)CN)C2c2cccc(Oc3ccccc3)c2)cc1", "note": "(stereo not shown) [TRG 2414-105]", "values": [
      {"measurement": "IC50", "setting": "[1]", "value": 3.71, "unit": "µM"},
      {"measurement": "IC50", "setting": "[2]", "value": 2.68, "unit": "µM"}
    ]},
    {"compound": "COc1ccc(CCNCC2c3ccccc3CN(CCCCC(CN)NCCc3ccccc3)C2c2cccc(Oc3ccccc3)c2)cc1", "note": "(stereo not shown) [TRG 2414-106]", "values": [
      {"measurement": "IC50", "setting": "[1]", "value": 12.9, "unit": "µM"},
      {"measurement": "IC50", "setting": "[2]", "value": 10, "unit": "µM"}
    ]},
    {"compound": "COc1ccc(CCNCC2c3ccccc3CN(CCCCC(CN)NCc3ccccc3)C2c2cccc(Oc3ccccc3)c2)cc1", "note": "(stereo not shown) [TRG 2414-107]", "values": [
      {"measurement": "IC50", "setting": "[1]", "value": 6.55, "unit": "µM"},
      {"measurement": "IC50", "setting": "[2]", "value": 8.21, "unit": "µM"}
    ]},
    {"compound": "COc1ccc(CCNCC2c3ccccc3CN(CCCCC(CN)NCC(C)c3ccc(CC(C)C)cc3)C2c2cccc(Oc3ccccc3)c2)cc1", "note": "(stereo not shown) [TRG 2414-108]", "values": [
      {"measurement": "MC-1 IC50", "setting": "[1]", "value": "no fit"},
      {"measurement": "IC50", "setting": "[2]", "value": 49.2, "unit": "µM"}
    ]},
    {"compound": "NCC(N)CCCCN1Cc2ccccc2C(CNCc2ccccc2)C1c1cccc(Oc2ccccc2)c1", "note": "(stereo not shown) [TRG 2414-109]", "values": [
      {"measurement": "IC50", "setting": "[1]", "value": 3.06, "unit": "µM"},
      {"measurement": "IC50", "setting": "[2]", "value": 0.91, "unit": "µM"}
    ]},
    {"compound": "NCC(CCCCN1Cc2ccccc2C(CNCc2ccccc2)C1c1cccc(Oc2ccccc2)c1)NCCc1ccccc1", "note": "(stereo not shown) [TRG 2414-110]", "values": [
      {"measurement": "IC50", "setting": "[1]", "value": 11.1, "unit": "µM"},
      {"measurement": "IC50", "setting": "[2]", "value": 10, "unit": "µM"}
    ]},
    {"compound": "NCC(CCCCN1Cc2ccccc2C(CNCc2ccccc2)C1c1cccc(Oc2ccccc2)c1)NCc1ccccc1", "note": "(stereo not shown) [TRG 2414-111]", "values": [
      {"measurement": "IC50", "setting": "[1]", "value": 7.74, "unit": "µM"},
      {"measurement": "IC50", "setting": "[2]", "value": 13.1, "unit": "µM"}
    ]},
    {"compound": "CC(C)Cc1ccc(C(C)CNC(CN)CCCCN2Cc3ccccc3C(CNCc3ccccc3)C2c2cccc(Oc3ccccc3)c2)cc1", "note": "(stereo not shown) [TRG 2414-112]", "values": [
      {"measurement": "MC-1 IC50", "setting": "[1]", "value": "no fit"},
      {"measurement": "IC50", "setting": "[2]", "value": 51.3, "unit": "µM"}
    ]},
    {"compound": "NCC(N)CCCCN1Cc2ccccc2C(CNC2CCCCCC2)C1c1cccc(Oc2ccccc2)c1", "note": "(stereo not shown) [TRG 2414-113]", "values": [
      {"measurement": "IC50", "setting": "[1]", "value": 2.96, "unit": "µM"},
      {"measurement": "IC50", "setting": "[2]", "value": 1.78, "unit": "µM"}
    ]},
    {"compound": "NCC(CCCCN1Cc2ccccc2C(CNC2CCCCCC2)C1c1cccc(Oc2ccccc2)c1)NCCc1ccccc1", "note": "(stereo not shown) [TRG 2414-114]", "values": [
      {"measurement": "IC50", "setting": "[1]", "value": 8.96, "unit": "µM"},
      {"measurement": "IC50", "setting": "[2]", "value": 4.83, "unit": "µM"}
    ]},
    {"compound": "NCC(CCCCN1Cc2ccccc2C(CNC2CCCCCC2)C1c1cccc(Oc2ccccc2)c1)NCc1ccccc1", "note": "(stereo not shown) [TRG 2414-115]", "values": [
      {"measurement": "IC50", "setting": "[1]", "value": 3.71, "unit": "µM"},
      {"measurement": "IC50", "setting": "[2]", "value": 5.6, "unit": "µM"}
    ]},
    {"compound": "CC(C)Cc1ccc(C(C)CNC(CN)CCCCN2Cc3ccccc3C(CNC3CCCCCC3)C2c2cccc(Oc3ccccc3)c2)cc1", "note": "(stereo not shown) [TRG 2414-116]", "values": [
      {"measurement": "IC50", "setting": "[1]", "value": 53.7, "unit": "µM"},
      {"measurement": "MC-4 IC50", "setting": "[2]", "value": "no fit"}
    ]},
    {"compound": "NCC(N)CCCCN1Cc2ccccc2C(CNC2CCCCC2)C1c1cccc(Oc2ccccc2)c1", "note": "(stereo not shown) [TRG 2414-117]", "values": [
      {"measurement": "IC50", "setting": "[1]", "value": 1.93, "unit": "µM"},
      {"measurement": "IC50", "setting": "[2]", "value": 1.27, "unit": "µM"}
    ]},
    {"compound": "NCC(CCCCN1Cc2ccccc2C(CNC2CCCCC2)C1c1cccc(Oc2ccccc2)c1)NCc1ccccc1", "note": "(stereo not shown) [TRG 2414-119]", "values": [
      {"measurement": "IC50", "setting": "[1]", "value": 5.01, "unit": "µM"},
      {"measurement": "IC50", "setting": "[2]", "value": 4.77, "unit": "µM"}
    ]},
    {"compound": "CC(C)Cc1ccc(C(C)CNC(CN)CCCCN2Cc3ccccc3C(CNC3CCCCC3)C2c2cccc(Oc3ccccc3)c2)cc1", "note": "(stereo not shown) [TRG 2414-120]", "values": [
      {"measurement": "IC50", "setting": "[1]", "value": 25, "unit": "µM"},
      {"measurement": "IC50", "setting": "[2]", "value": 58.8, "unit": "µM"}
    ]},
    {"compound": "NCC(N)CCCCN1Cc2ccccc2C(CNCc2ccccc2C(F)(F)F)C1c1ccc(Oc2ccccc2)cc1", "note": "(stereo not shown) [TRG 2414-121]", "values": [
      {"measurement": "IC50", "setting": "[1]", "value": 8.13, "unit": "µM"},
      {"measurement": "IC50", "setting": "[2]", "value": 27.8, "unit": "µM"}
    ]},
    {"compound": "NCC(CCCCN1Cc2ccccc2C(CNCc2ccccc2C(F)(F)F)C1c1ccc(Oc2ccccc2)cc1)NCCc1ccccc1", "note": "(stereo not shown) [TRG 2414-122]", "values": [
      {"measurement": "MC-1 IC50", "setting": "[1]", "value": "no fit"},
      {"measurement": "IC50", "setting": "[2]", "value": 55.5, "unit": "µM"}
    ]}
  ]
}
